Reference: patent publication US20260315431A1, “NANOMATERIAL ENCAPSULATED BIOFILM INHIBITORS FOR DENTAL CARIES TREATMENT” (THE UAB RESEARCH FOUNDATION, priority 2023, published 2026)
“Also recorded” adds a separate entry of the source.

What was measured:
S. mutans UA159 = experiment: Gnotobiotic rat model of dental caries (PEHA5 / HA5 study, Example 2); format: in vivo, gnotobiotic rats infected with S. mutans UA159; set-up: key to Buccal Mean Caries Scores (±SEM) E / Buccal Mean Caries Scores (±SEM) Ds / Buccal Mean Caries Scores (±SEM) Dm / Buccal Mean Caries Scores (±SEM) Dx / Sulcal Mean Caries Scores (± SEM) E / Sulcal Mean Caries Scores (± SEM) Ds / Sulcal Mean Caries Scores (± SEM) Dm / Sulcal Mean Caries Scores (± SEM) Dx / Proximal Mean Caries Scores (± SEM) E / Proximal Mean Caries Scores (± SEM) Ds: caries scored by the Keyes method; conditions: 100 μM
From the text: (§1) The effect of PEHA5 on S. mutans colonization and virulence was compared side-by-side with HA5 using a well-established gnotobiotic rat model of dental caries^[50-54]. A (vehicle+infection only) group was included as a negative control. All rats from the experimental groups and from the control group were colonized with S. mutans UA159. […] Similar reductions in caries scores were also observed in sulcal caries scores and proximal caries scores (Table 5). We were unable to record the effect of the treatment on dentinal moderate (Dm) and dentinal extensive (Dx) scores in the proximal area due to the absence of dentinal lesions in the control and treated groups.
We used Fischer 344 rats that were bred and maintained in trexler isolators for this experiment. Male and female rat pups were removed from isolators at 20 days of age and randomly assigned into treatment groups of 5 rats/group in cages with filter tops. Rats were then infected with S. mutans UA159 strain by oral swabbing daily for four consecutive days with a fresh overnight culture of S. mutans UA159. Rats were provided with caries promoting Teklad Diet 305 containing […] (Harlan Laboratories, Inc., Indianapolis, IN) and sterile drinking water ad libitum. Oral swabs were taken 5 days post-infection and plated on Todd Hewitt (TH) agar plates and incubated at 37° C. in an environment of 5% CO2 in the air to confirm colonization. Rats were weighed at weaning and then weekly throughout the experiment. One-week post-infection, the molars of the rats were brushed twice daily for 4 weeks with the test compounds using camel-hair brushes. Four treatment groups used in this study were: 1) HA5 (100 μM); 2) […] (100 μM); 3) NaF (250 ppm); and 4) infected untreated rats. Drinking water was withheld for 60 min following each treatment with the compound. Animals were weighed at weaning and at the termination of the experiment. On day 60, the rats were sacrificed using CO2 followed by cervical dislocation or bilateral thoracotomy. The mandibles were surgically removed and cleaned of excess tissue to assess the level of bacteria present and the extent of caries formation. The right mandible from each rat was placed in a tube containing phosphate buffer (3 mL), placed on ice and sonicated (10 sec) to release bacteria from the molars. Each sample was serially diluted, plated on blood (BAP) and mitis-salivarius (MS) agar plates and incubated in an environment of 5% CO2 in air at 37° C. to quantify the level of total bacteria and S. mutans present in the plaque. The right and left mandibles from each rat were then placed in 95% ethanol for 24 h. The mandibles will be cleaned and stained overnight with murexide solution. After drying, the mandibles were sectioned and scored for caries activity using the Keyes method Caries scores were recorded for the buccal, sulcal and proximal molar surfaces individually so that differences among the surfaces can be distinguished. Statistical significance in the mean caries scores, colony-forming units (CFU)/mandible and body weights between groups of rats were determined by one-way analysis of variance (ANOVA) with the Tukey-Kramer multiple comparison test using the InStat program (GraphPad Prism 10.0.2.). When determining the statistical significance between the two groups, an unpaired t-test was applied. Differences between groups were considered significant at a P-value<0.05.

[1] = HA5 loading into (PMAA)5 hydrogel (UV-visible spectroscopy); format: physicochemical; conditions: (PMAA)5 hydrogel cubes soaked in 5 mg/mL HA5 in methanol, 48 h
Protocol: Encapsulation of HA5 inside (PMAA)5 hydrogels microparticles. Compound HA5 was encapsulated in the (PMAA)5 hydrogel cubes through post-loading by soaking the hydrogels in 5 mg/mL solution of HA5 in methanol for 48 h in the dark (FIGS. 1.7A-B). The free, non-encapsulated HA5 was removed from particle solution by rinsing with HEPES buffer (pH=7.4) five times using centrifugation at 5000 rpm for 10 min. The HA5 quantification was carried out with UV-visible spectroscopy (NanoDrop One C, ThermoFisher) at λ=448 nm using an HA5 calibration curve. The drug solution was analyzed before and after the exposure to the hydrogel particles and the differences in the absorbance spectra were used to determine the loading of the drug into the hydrogel network. […] Freshly extracted, intact third molars with flat surfaces obtained from Dr. Nathaniel Lawson's lab (UAB School of Dentistry, IRB-300001291) were used in these studies. The AFM silicon probes NSG30 (NT-MDT, resonance frequency 240-440 kHz, force constant 22-100 N m^−1, tip radii is 10 nm, scan rate is 0.5 Hz) were used for imaging the tooth surfaces in tapping mode before and after hydrogel adhesion. […] The height of the dried hydrogel cubes was determined using section profiles, which indicated an average particle height of 1.3±0.2 μm. […]

[2] = Body weight of animals, PEHA5 / HA5 study; format: in vivo, gnotobiotic rats; conditions: 100 μM
From the text: as §1
We used Fischer 344 rats that were bred and maintained in trexler isolators for this experiment. Male and female rat pups were removed from isolators at 20 days of age and randomly assigned into treatment groups of 5 rats/group in cages with filter tops. […] Each sample was serially diluted, plated on blood (BAP) and mitis-salivarius (MS) agar plates and incubated in an environment of 5% CO2 in air at 37° C. to quantify the level of total bacteria and S. mutans present in the plaque. […] After drying, the mandibles were sectioned and scored for caries activity using the Keyes method Caries scores were recorded for the buccal, sulcal and proximal molar surfaces individually so that differences among the surfaces can be distinguished. […]

GtfB = GtfB (Streptococcus mutans, UniProt P08987); experiment: HA5/GtfB X-ray co-crystal structure; format: binding; conditions: catalytic domain of GtfB
Sequence of GtfB (P08987 265-1143): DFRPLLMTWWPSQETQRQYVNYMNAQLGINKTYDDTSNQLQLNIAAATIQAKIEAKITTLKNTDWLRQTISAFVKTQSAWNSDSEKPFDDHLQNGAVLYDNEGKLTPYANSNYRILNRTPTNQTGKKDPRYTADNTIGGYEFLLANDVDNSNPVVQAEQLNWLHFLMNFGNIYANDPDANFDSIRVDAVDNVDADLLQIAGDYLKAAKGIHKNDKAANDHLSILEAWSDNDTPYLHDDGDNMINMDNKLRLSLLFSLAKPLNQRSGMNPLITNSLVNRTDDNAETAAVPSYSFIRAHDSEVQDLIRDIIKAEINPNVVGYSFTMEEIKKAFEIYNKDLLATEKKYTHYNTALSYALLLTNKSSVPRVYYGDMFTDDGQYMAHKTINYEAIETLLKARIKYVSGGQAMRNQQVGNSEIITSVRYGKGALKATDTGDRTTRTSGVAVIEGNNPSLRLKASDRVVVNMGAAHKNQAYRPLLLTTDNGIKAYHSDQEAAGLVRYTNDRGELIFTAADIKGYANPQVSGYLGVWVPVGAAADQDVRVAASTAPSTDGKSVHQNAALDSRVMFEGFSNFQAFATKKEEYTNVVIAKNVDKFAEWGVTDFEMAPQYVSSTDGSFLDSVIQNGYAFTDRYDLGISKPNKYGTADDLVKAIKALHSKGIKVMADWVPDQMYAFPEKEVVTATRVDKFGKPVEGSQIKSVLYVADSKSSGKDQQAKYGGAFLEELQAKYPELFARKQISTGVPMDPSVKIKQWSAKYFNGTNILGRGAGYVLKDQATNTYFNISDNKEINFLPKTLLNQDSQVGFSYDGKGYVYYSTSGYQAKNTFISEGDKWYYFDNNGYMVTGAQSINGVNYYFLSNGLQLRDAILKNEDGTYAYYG

Structure (SMILES): O=C1/C(=C/c2cc(O)c(O)cc2O)Oc2ccccc21 [HA5, 2-[(2′,4′,5′-Trihydroxyphenyl)methylidene]-2,3-dihydro-1-benzofuran-3-one]
- effect on bacterial colonization (S. mutans UA159; 4-week treatment): did not affect bacterial colonization significantly
- reduction in caries scores (S. mutans UA159; 4-week treatment): significant reductions in buccal caries scores
- CFU/mL BAP (S. mutans UA159; Blood agar plate): 5.2 ± 1.4 CFU/mL (×10^5)
- CFU/mL MS (S. mutans UA159; Mitis-Salivarius agar): 5.5 ± 2.6 CFU/mL (×10^5)
- Buccal Mean Caries Scores (±SEM) Dx (S. mutans UA159; dentinal extensive, 4 weeks): 1.4 ± 0.4
- Sulcal Mean Caries Scores (± SEM) Dx (S. mutans UA159; dentinal extensive, 4 weeks): 4.8 ± 0.9
- Buccal Mean Caries Scores (±SEM) Dm (S. mutans UA159; dentinal moderate, 4 weeks): 2.8 ± 0.5
- Sulcal Mean Caries Scores (± SEM) Dm (S. mutans UA159; dentinal moderate, 4 weeks): 9.4 ± 0.5
- Buccal Mean Caries Scores (±SEM) Ds (S. mutans UA159; dentinal slight, 4 weeks): 6.4 ± 1.0
- Proximal Mean Caries Scores (± SEM) Ds (S. mutans UA159; dentinal slight, 4 weeks): 3.4 ± 0.6
- Sulcal Mean Caries Scores (± SEM) Ds (S. mutans UA159; dentinal slight, 4 weeks): 15.0 ± 0.9
- Buccal Mean Caries Scores (±SEM) E (S. mutans UA159; enamel, 4 weeks): 9.0 ± 0.6
- Proximal Mean Caries Scores (± SEM) E (S. mutans UA159; enamel, 4 weeks): 5.2 ± 0.5
- Sulcal Mean Caries Scores (± SEM) E (S. mutans UA159; enamel, 4 weeks): 20.6 ± 0.8
- loading capacity [1]: 5.5×10^−3 ng of HA5 per particle
- Weight [2]: 145 ± 14 g
- weight loss ([2]; 4-week treatment): did not experience any weight loss
- binding in HA5/GtfB co-crystal structure (GtfB): binding in the catalytic site of GtfB; also recorded: does not show any covalent bond
